{"source": "patent US20260344673A1", "about": "“A SOLID FORM FOR PREPARATION OF AN AQUEOUS DISPERSION, AQUEOUS DISPERSION, STABLE CONCENTRATE, COMBINED AQUEOUS DISPERSION, AND USES THEREOF” (priority 2022, published 2026)", "key": {"Monilinia fructigena": {"test_system": "Monilinia fructigena", "assay": "Kirby-Bauer disk diffusion test, Monilinia fructigena", "settings": "for % mycelium growth relative to the control / mycelium growth: V8 medium; for mycelium growth: control 5.4 cm; for EFFICACY W (Abbot): control W=0, no growth W=100", "description": "(§1) The performance of the embodiments of the present inventions and their mixtures enriched with millbase (MFA) was analysed against the appropriate reference substance, i.e., a commercial product containing the analogue active substance with the same concentration. The prepared solutions were applied on the paper antibiograms. Then the soaked antibiograms were placed on the Petri Dishes (dish diameter 90 mm) with the growth medium for fungal pathogens V8. Composition of V8: agar, calcium carbonate and multi-vegetable juice. 3 fragments of mycelium of the tested pathogen (5×5 mm) were transplanted onto the prepared medium. As a result, the zones where the fungal growth was inhibited have been measured and compared respectively with the control sample and the analogue active substance sample.\n(§2) Assessment was carried out by determining the infested area of the Petri dish in %. These percentages have been converted into efficacy (W) according to Abbot's formula as follows: W=(1−α/β)×100 • where: • α—corresponds to the mycelium/bacterial growth of each tested sample [%], • β—corresponds to the mycelium/bacterial growth in control sample [%].\n(§3) In order to estimate if the combined action effect with the commercial fungicide, the W parameter of the mixture was compared with W parameter for particular commercial fungicide solo. Where W=0 the efficacy of the control sample (whole Petri dish covered with mycelium), and W=100 is when no mycelium growth observed."}, "Venturia inaegualis": {"test_system": "Venturia inaegualis", "assay": "Kirby-Bauer disk diffusion test, Venturia inaequalis", "settings": "for EFFICACY W (Abbot): control W=0, no growth W=100", "description": "(§4) The microbiological tests were carried out by applying Kirby-Bauer Disk Diffusion Susceptibility Test Protocol for antimicrobial activity. It is based on the formation of a concentration gradient in the growth medium during the diffusion of the active substance from the antibiogram disc (Kirby-Bauer method).\nas §1, §2, §3"}, "Botrytis cinerea": {"test_system": "Botrytis cinerea", "assay": "Kirby-Bauer disk diffusion test, Botrytis cinerea", "settings": "for % mycelium growth relative to the control / mycelium growth: V8 medium; for mycelium growth: control 8.6 cm; for EFFICACY W (Abbot): control W=0, no growth W=100", "description": "as §1, §2, §3"}, "[1]": {"test_system": "Colletotrichum gloeosporioides", "assay": "Kirby-Bauer disk diffusion test, Colletotrichum gloeosporioides", "settings": "Colletotrichum gloeosporioides; for % mycelium growth relative to the control / mycelium growth: V8 medium; for mycelium growth: control 5.4 cm; for EFFICACY W (Abbot): control W=0, no growth W=100", "description": "as §4, §1, §2, §3"}, "Phytium ultimum": {"test_system": "Phytium ultimum", "assay": "Kirby-Bauer disk diffusion test, Phytium ultimum", "description": "as §1, §2, §3"}, "Phytophthora megasperma": {"test_system": "Phytophthora megasperma", "assay": "Kirby-Bauer disk diffusion test, Phytophthora megasperma", "settings": "Phytophthora megasperma; for % mycelium growth relative to the control / mycelium growth: V8 medium; for mycelium growth: control 5.4 cm (8.6 cm in Table 25); for EFFICACY W (Abbot): control W=0, no growth W=100", "description": "as §4, §1, §2, §3"}, "Phytophthora cactorum": {"test_system": "Phytophthora cactorum", "assay": "Kirby-Bauer disk diffusion test, Phytophthora cactorum", "parameters": "% mycelium growth relative to the control: concentration or dose not given beside the values", "settings": "for % mycelium growth relative to the control / mycelium growth: V8 medium; for mycelium growth: control 5.4 cm; for EFFICACY W (Abbot): control W=0, no growth W=100", "description": "as §1, §2, §3"}, "Fusarium oxysporum": {"test_system": "Fusarium oxysporum", "assay": "Kirby-Bauer disk diffusion test, Fusarium oxysporum", "settings": "Fusarium oxysporum", "description": "as §4, §1, §2, §3"}, "Verticillium longisporum": {"test_system": "Verticillium longisporum", "assay": "Kirby-Bauer disk diffusion test, Verticillium longisporum", "description": "as §1, §2, §3"}, "Septoria nodorum (1291)": {"test_system": "Septoria nodorum (1291)", "assay": "Kirby-Bauer disk diffusion test, Septoria nodorum (1291)", "description": "as §1, §2, §3"}, "Rhizoctonia solani": {"test_system": "Rhizoctonia solani", "assay": "Kirby-Bauer disk diffusion test, Rhizoctonia solani", "description": "as §1, §2, §3"}, "Septoria tritici": {"test_system": "Septoria tritici", "assay": "Kirby-Bauer disk diffusion test, Septoria tritici", "description": "as §1, §2, §3"}, "Sclerotinia sclerotiorum": {"test_system": "Sclerotinia sclerotiorum", "assay": "Kirby-Bauer disk diffusion test, Sclerotinia sclerotiorum", "description": "as §1, §2, §3"}, "[2]": {"test_system": "Alternaria infectoria/alternata", "assay": "Kirby-Bauer disk diffusion test, Alternaria infectoria/alternata", "description": "as §1, §2, §3"}, "Fusarium equiseti": {"test_system": "Fusarium equiseti", "assay": "Kirby-Bauer disk diffusion test, Fusarium equiseti", "description": "as §1, §2, §3"}, "[3]": {"settings": "Venturia inaegualis, V8 medium, control 2.9 cm"}}}
{"molecule": "O=C1C2CC=CCC2C(=O)N1SC(Cl)(Cl)Cl", "note": "(stereo not drawn) [Captan (1500)]", "values": [{"measurement": "% mycelium growth relative to the control", "setting": "Monilinia fructigena", "result": 33, "unit": "%"}, {"measurement": "mycelium growth", "setting": "Monilinia fructigena", "result": 1.8, "unit": "cm"}, {"measurement": "EFFICACY W (Abbot)", "setting": "Monilinia fructigena", "result": 67}, {"measurement": "% mycelium growth relative to the control", "setting": "Venturia inaegualis; Venturia inaegualis, V8 medium", "result": 38, "unit": "%"}, {"measurement": "mycelium growth", "setting": "Venturia inaegualis; [3]", "result": 1.1, "unit": "cm"}, {"measurement": "EFFICACY W (Abbot)", "setting": "Venturia inaegualis; Venturia inaegualis", "result": 62}, {"measurement": "% mycelium growth relative to the control", "setting": "Botrytis cinerea", "result": 70, "unit": "%"}, {"measurement": "mycelium growth", "setting": "Botrytis cinerea", "result": 6, "unit": "cm"}, {"measurement": "EFFICACY W (Abbot)", "setting": "Botrytis cinerea", "result": 30}, {"measurement": "% mycelium growth relative to the control", "setting": "[1]", "result": 11, "unit": "%"}, {"measurement": "mycelium growth", "setting": "[1]", "result": 0.6, "unit": "cm"}, {"measurement": "EFFICACY W (Abbot)", "setting": "[1]", "result": 89}]}
{"molecule": "Cc1ccc(-c2c(Cl)nc(C#N)n2S(=O)(=O)N(C)C)cc1", "note": "[Cyazofamid (80)]", "values": [{"measurement": "% mycelium growth relative to the control", "setting": "Phytium ultimum; V8 medium", "result": 66, "unit": "%"}, {"measurement": "mycelium growth", "setting": "Phytium ultimum; V8 medium, control 8.6 cm", "result": 5.7, "unit": "cm"}, {"measurement": "EFFICACY W (Abbot)", "setting": "Phytium ultimum; control W=0, no growth W=100", "result": 76}, {"measurement": "% mycelium growth relative to the control", "setting": "Phytophthora megasperma", "result": 100, "unit": "%"}, {"measurement": "mycelium growth", "setting": "Phytophthora megasperma", "result": 5.4, "unit": "cm"}, {"measurement": "EFFICACY W (Abbot)", "setting": "Phytophthora megasperma", "result": 0}, {"measurement": "% mycelium growth relative to the control", "setting": "Phytophthora cactorum", "result": 63, "unit": "%"}, {"measurement": "mycelium growth", "setting": "Phytophthora cactorum", "result": 3.4, "unit": "cm"}, {"measurement": "EFFICACY W (Abbot)", "setting": "Phytophthora cactorum", "result": 37}]}
{"molecule": "CCCCCCCCCCCCNC(=N)N", "note": "[Dodine, dodine, reference compound]", "values": [{"measurement": "activity at 680000 µg/mL", "setting": "Venturia inaegualis; Venturia, dodine 680 g/L, read-out: % mycelium growth relative to the control", "result": 55, "unit": "%"}, {"measurement": "inhibition of growth at 680000 µg/mL (stock)", "setting": "Venturia inaegualis; Venturia, dodine 680 g/L, read-out: EFFICACY W (Abbot)", "result": 45, "unit": "%"}, {"measurement": "mycelium growth", "setting": "Venturia inaegualis; dodine 680 g/L", "result": 1.6, "unit": "cm"}]}
{"molecule": "N#Cc1c[nH]cc1-c1cccc2c1OC(F)(F)O2", "note": "[Fludioxonil (250)]", "values": [{"measurement": "% mycelium growth relative to the control", "setting": "Fusarium oxysporum; V8 medium", "result": 86, "unit": "%"}, {"measurement": "mycelium growth", "setting": "Fusarium oxysporum; V8 medium, control 8.6 cm", "result": 7.4, "unit": "cm"}, {"measurement": "EFFICACY W (Abbot)", "setting": "Fusarium oxysporum; control W=0, no growth W=100", "result": 14}, {"measurement": "% mycelium growth relative to the control", "setting": "Verticillium longisporum; V8 medium", "result": 87, "unit": "%"}, {"measurement": "mycelium growth", "setting": "Verticillium longisporum; V8 medium, control 3.9 cm", "result": 3.4, "unit": "cm"}, {"measurement": "EFFICACY W (Abbot)", "setting": "Verticillium longisporum; control W=0, no growth W=100", "result": 13}, {"measurement": "% mycelium growth relative to the control", "setting": "Septoria nodorum (1291); V8 medium", "result": 72, "unit": "%"}, {"measurement": "mycelium growth", "setting": "Septoria nodorum (1291); V8 medium, control 5.4 cm", "result": 3.9, "unit": "cm"}, {"measurement": "EFFICACY W (Abbot)", "setting": "Septoria nodorum (1291); control W=0, no growth W=100", "result": 28}, {"measurement": "% mycelium growth relative to the control", "setting": "Monilinia fructigena", "result": 61, "unit": "%"}, {"measurement": "mycelium growth", "setting": "Monilinia fructigena", "result": 3.3, "unit": "cm"}, {"measurement": "EFFICACY W (Abbot)", "setting": "Monilinia fructigena", "result": 39}, {"measurement": "% mycelium growth relative to the control", "setting": "Rhizoctonia solani; V8 medium", "result": 55, "unit": "%"}, {"measurement": "mycelium growth", "setting": "Rhizoctonia solani; V8 medium, control 8.6 cm", "result": 4.7, "unit": "cm"}, {"measurement": "EFFICACY W (Abbot)", "setting": "Rhizoctonia solani; control W=0, no growth W=100", "result": 45}, {"measurement": "% mycelium growth relative to the control", "setting": "Septoria tritici; V8 medium", "result": 42, "unit": "%"}, {"measurement": "mycelium growth", "setting": "Septoria tritici; V8 medium, control 1.9 cm", "result": 0.8, "unit": "cm"}, {"measurement": "EFFICACY W (Abbot)", "setting": "Septoria tritici; control W=0, no growth W=100", "result": 58}, {"measurement": "% mycelium growth relative to the control", "setting": "Sclerotinia sclerotiorum; V8 medium", "result": 0, "unit": "%"}, {"measurement": "mycelium growth", "setting": "Sclerotinia sclerotiorum; V8 medium, control 8.6 cm", "result": 0, "unit": "cm"}, {"measurement": "EFFICACY W (Abbot)", "setting": "Sclerotinia sclerotiorum; control W=0, no growth W=100", "result": 100}, {"measurement": "% mycelium growth relative to the control", "setting": "Venturia inaegualis; Venturia inaegualis, V8 medium", "result": 38, "unit": "%"}, {"measurement": "mycelium growth", "setting": "Venturia inaegualis; [3]", "result": 1.1, "unit": "cm"}, {"measurement": "EFFICACY W (Abbot)", "setting": "Venturia inaegualis; Venturia inaegualis", "result": 62}, {"measurement": "% mycelium growth relative to the control", "setting": "[2]; V8 medium", "result": 0, "unit": "%"}, {"measurement": "mycelium growth", "setting": "[2]; V8 medium, control 8.6 cm", "result": 0, "unit": "cm"}, {"measurement": "EFFICACY W (Abbot)", "setting": "[2]; control W=0, no growth W=100", "result": 100}, {"measurement": "% mycelium growth relative to the control", "setting": "Botrytis cinerea", "result": 0, "unit": "%"}, {"measurement": "mycelium growth", "setting": "Botrytis cinerea", "result": 0, "unit": "cm"}, {"measurement": "EFFICACY W (Abbot)", "setting": "Botrytis cinerea", "result": 100}, {"measurement": "% mycelium growth relative to the control", "setting": "Fusarium graminearum; V8 medium", "result": 73, "unit": "%"}, {"measurement": "mycelium growth", "setting": "Fusarium graminearum; V8 medium, control 8.6 cm", "result": 6.3, "unit": "cm"}, {"measurement": "EFFICACY W (Abbot)", "setting": "Fusarium graminearum; control W=0, no growth W=100", "result": 27}, {"measurement": "% mycelium growth relative to the control", "setting": "Fusarium equiseti; V8 medium", "result": 81, "unit": "%"}, {"measurement": "mycelium growth", "setting": "Fusarium equiseti; V8 medium, control 8.6 cm", "result": 7, "unit": "cm"}, {"measurement": "EFFICACY W (Abbot)", "setting": "Fusarium equiseti; control W=0, no growth W=100", "result": 19}, {"measurement": "% mycelium growth relative to the control", "setting": "Phytophthora megasperma", "result": 100, "unit": "%"}, {"measurement": "mycelium growth", "setting": "Phytophthora megasperma", "result": 5.4, "unit": "cm"}, {"measurement": "EFFICACY W (Abbot)", "setting": "Phytophthora megasperma", "result": 0}, {"measurement": "% mycelium growth relative to the control", "setting": "Phytophthora cactorum", "result": 100, "unit": "%"}, {"measurement": "mycelium growth", "setting": "Phytophthora cactorum", "result": 5.4, "unit": "cm"}, {"measurement": "EFFICACY W (Abbot)", "setting": "Phytophthora cactorum", "result": 0}, {"measurement": "% mycelium growth relative to the control", "setting": "[1]", "result": 81, "unit": "%"}, {"measurement": "mycelium growth", "setting": "[1]", "result": 4.4, "unit": "cm"}, {"measurement": "EFFICACY W (Abbot)", "setting": "[1]", "result": 19}]}
